Entries after “also recorded” stand apart in the source; their conditions may differ.
Legend:
[1] = target: T1, recombinant rat DGKα (Rattus norvegicus, UniProt P51556); experiment: ADP-Glo luminescent ADP detection assay; assay type: cell-based; settings: 1 hr, HEK293T cells expressing recombinant rat DGKα
T1 construct: expressed in transfected cells; host or cells: HEK293T
Description: (§1) T-cells require endogenous H2S to activate and proliferate. Cystathionine β-synthase (CBS) and Cystathionine γ-lyase (CSE) are two proteins responsible for generating H2S, and previous studies have shown how knockdown of these proteins can drastically impair T-cell function. We initially tested if DGKα was affected by sulfur donors in a recombinant system. Thus, HEK293T cells expressing recombinant rat DGKα were treated with Na2S4 for 1 hr for luminescent ADP detection assay (ADP-Glo) and ABPP experiments. The activity of the rat isoform in our ADP-Glo™ assay (Promega Corporation) decreased by 40% at 10 μM 30% at 1 μM of the sulfur donor.

[2] = target: T1, recombinant rat DGKα; experiment: Competitive ABPP gel assay using TH071; assay type: binding; settings: Na2S4 1 hr, TH071 as probe
Description: (§2) Continuing with the benzimidazole azetidine, we appended different alkyne tags via reductive amination or HATU coupling to observe the effects of N-substituents on the ring (Scheme 1 above). Soluble and membrane HEK293T cell proteomes were treated with 25 μM of azetidine compounds for one hour before addition of rhodamine via CLICK chemistry, i.e., copper catalyzed azide-alkyne cycloaddition (CuAAC). After the proteins were resolved via SDS-PAGE, we discovered a robust and unique binding profile from the azetidine probes (FIG. 2 and FIG. 3).
as §1

[3] = system: DGK; experiment: Substrate assay (ADP-Glo) on second DGK isoform; assay type: cell-based; settings: tested in a similar manner as DGKα
[4] = Evaluation of ring-opening under biological conditions with glutathione (LC-MS/MS); assay type: physicochemical; settings: glutathione 1.5 mmol eq., 37° C., 24 hrs, PBS and DMF (5:1), MS2
Description: (§3) An exemplary azetidine compound (RLM207) was dissolved in deuterated PBS with either cysteine (1.5 mmol eq.) or glutathione (1.5 mmol eq.), and incubated at 37° C. for 24 hrs in phosphate-buffered saline and DMF (5:1). To observe if any products formed between the RLM207 and biological nucleophiles, high-resolution LC-MS/MS was used to analyze the two reactions. Samples were desalted on a STAGE-Tip C^18 column and dissolved in mobile phase A (0.1% formic acid) for LC-MS/MS analysis. […] Thus, at 24.46 min, there appeared a peak with an M+1 mass of 547.2336 m/z corresponding to the covalent product.
(§4) Ring-opening reactions of azetidines typically employ harsh conditions that are not amenable to biological samples, such as strong acids and organic solvents^12-15. Our discovery was the first indication that azetidines form covalent products with a tripeptide.

[5] = Evaluation of ring-opening under biological conditions with cysteine (LC-MS/MS); assay type: physicochemical; settings: cysteine 1.5 mmol eq., 37° C., 24 hrs, PBS and DMF (5:1)
Description: as §3, §4

[6] = system: Soluble and membrane HEK293T cell proteomes; experiment: Gel assay (gel ABPP): protein binding, rhodamine CuAAC, SDS-PAGE fluorescence; set-up: species or system human; settings: 25 μM, one hour
Description: (§5) FIG. 2. Structure activity relationship studies of some azetidine compounds of the present disclosure and their reactivity. Cell lysates were incubated with the indicate azetidine compounds for 1 hr for gel experiments and 3 hrs for LC-MS/MS experiments. Rhodamine or desthiobiotin tags were appended to the probe for gel and mass spectrometry experiments, respectively, by copper-catalyzed azide-alkyne cycloaddition, i.e., CLICK chemistry.
as §2

[7] = system: DGK; experiment: Gel labeling of second DGK isoform by probe; assay type: binding; settings: gel assay
Description: as §2, §1

[8] = system: HEK lysates; experiment: LC-MS/MS identification of azetidine-tagged proteins/peptides (desthiobiotin azide enrichment); assay type: binding, human
Description: as §5
Our initial attempts to enrich for azetidine-bound peptides were not optimal when we treated HEK lysates with only 25 μM of azetidine compound, illustrated by TH071. While we could easily observe protein bands by gel fluorescence, we were not saturating the proteome.
(§6) Next, isotopically labeled proteins were obtained through routine procedures using labeled amino acids, and the proteins were then reacted with TH071 for 3 hrs before click chemistry with desthiobiotin azide for 2 hours. Proteins were digested by trypsin into peptides before azetidine-bound peptides were enriched via affinity chromatography. Eluted peptides were analyzed by high resolution LC-MS/MS using a top 10 data-dependent acquisition (DDA). An added mass of 631.3858 Da was used to search for azetidine modifications to amino acid residues. Peptides were quantified between samples by measuring the integration of MS1 peaks between heavy and light peptides, and were sequenced by manual verification of MS2 fragmentation spectra. […] Sulfhydration modifications are a form of cysteine oxidation after the reaction with H2S to form a persulfide (S—SH).

[9] = target: recombinant mammalian DGKα (Rattus norvegicus, UniProt P51556); experiment: LC-MS/MS enrichment of azetidine-bound peptides on recombinant DGKα; assay type: binding
recombinant mammalian DGKα, sequence (P51556 whole entry): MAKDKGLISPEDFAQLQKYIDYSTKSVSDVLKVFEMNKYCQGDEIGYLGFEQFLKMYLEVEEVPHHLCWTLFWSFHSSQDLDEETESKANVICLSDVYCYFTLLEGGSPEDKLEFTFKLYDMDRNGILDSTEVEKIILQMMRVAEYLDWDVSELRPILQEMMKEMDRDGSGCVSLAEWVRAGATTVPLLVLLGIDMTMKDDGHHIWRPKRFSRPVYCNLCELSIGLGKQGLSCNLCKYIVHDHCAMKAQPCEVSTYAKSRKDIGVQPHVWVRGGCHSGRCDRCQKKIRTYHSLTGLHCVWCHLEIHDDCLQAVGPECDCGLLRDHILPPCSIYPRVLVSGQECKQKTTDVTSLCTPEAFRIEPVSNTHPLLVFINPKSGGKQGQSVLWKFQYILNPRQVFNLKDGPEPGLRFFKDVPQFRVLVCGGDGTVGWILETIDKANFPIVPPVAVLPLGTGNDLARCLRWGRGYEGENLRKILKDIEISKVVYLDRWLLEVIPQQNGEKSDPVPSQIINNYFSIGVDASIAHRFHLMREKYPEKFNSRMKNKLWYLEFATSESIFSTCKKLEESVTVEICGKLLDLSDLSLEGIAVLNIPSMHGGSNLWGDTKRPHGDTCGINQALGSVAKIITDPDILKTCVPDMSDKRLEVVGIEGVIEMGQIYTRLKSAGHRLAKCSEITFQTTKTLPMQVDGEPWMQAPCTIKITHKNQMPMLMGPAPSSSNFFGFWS
Description: as §6
Due to the lipophilic nature of azetidines, we also tested TH071 on recombinant mammalian DGKα and enriched for four peptides that were unique to this azetidine compound. Of these sites, two are located adjacent to the active site, one within the catalytic domain, and another in the zinc finger domain. […] DGKs […] the interconversion of diacylglycerol (DAG) to phosphatidic acid (PA). […]

T1 sequence (P51556 whole entry): as above

Structure (SMILES): [Na+].[Na+].[S-]SS[S-] [Na2S4]
- decrease of DGKα activity ([1]; 1 μM sulfur donor): 30%
- decrease of DGKα activity ([1]; 10 μM sulfur donor): 40%
- effect of sulfur donor on TH071 labeling of DGKα (competitive ABPP) [2]: these results were recapitulated
- effect on DGK activity in substrate assay [3]: showed no effect

Structure (SMILES): C#CCCCN1CC(c2nc3ccccc3[nH]2)C1 [RLM207]
- product formation between azetidine and glutathione (ring-opening) [4]: had bound to the cysteine of glutathione
- product formation between azetidine and cysteine [5]: no change was observed

Structure (SMILES): C#CCCCN1CC(c2cccc(F)c2)C1 [TH070]
- azetidine reactivity / protein binding (probe labeling) in gel assay [6]: least reactive

Structure (SMILES): C#CCCCN1CCC1c1cccc(F)c1 (stereo not shown) [TH073]
- azetidine reactivity / protein binding (probe labeling) in gel assay [6]: could not recover probe labeling

Structure (SMILES): C#CCCCN1CCC1c1ccccc1F (stereo not shown) [TH074]
- azetidine reactivity / protein binding (probe labeling) in gel assay [6]: could not recover probe labeling

Structure (SMILES): C#CCCCN1CC(c2ccccc2F)C1 [TH071]
- probe labeling of DGK protein [7]: failed to label the protein
- enrichment of azetidine-bound peptides ([8]; 25 μM, HEK lysates): not optimal
- identification of azetidine-tagged proteins by LC-MS/MS ([8]; 0.5 mM TH071, 3 hrs, HEK lysates): identified multiple azetidine-tagged proteins
- residue type modified by the azetidine compound ([8]; MS2 site localisation, FIG. 5): binds to cysteine residues
- azetidine reactivity / protein binding (probe labeling) in gel assay [6]: most reactive; also recorded: could not recover probe labeling; also recorded: displayed the best reactivity
- number of enriched peptides unique to the azetidine compound [9]: four

Structure (SMILES): C#CCCCN1CC(c2ccc(F)cc2)C1 [TH069]
- azetidine reactivity / protein binding (probe labeling) in gel assay [6]: most reactive

— patent US12624020B2, “Compositions and methods for preparing and using azetidines” (University of Virginia Patent Foundation, priority 2018, dated 2026)
